In ChEMBL document CHEMBL3046801, “Synthesis of 2-R1-2-(4-(2-fluoroethoxy)benzamido)acetate as potential PET imaging agents” (Med Chem Res, 2012):

Experiments:
Tumour [1] = assay: Biodistribution in tumor of Mus musculus KM (mouse) at 3.7 MBq, iv measured at 120 min by microPET imaging analysis; type: ADME, organism-based, Neoplasm; settings: in vivo, 2 h
Blood [2] = assay: Clearance in tumor-bearing Mus musculus KM (mouse) blood at 3.7 MBq, iv measured at 60 min; type: ADME, organism-based; settings: in vivo, 1 h
Blood [3] = assay: Biodistribution in tumor bearing Mus musculus KM (mouse) blood at 3.7 MBq, iv measured at 60 min by microPET imaging analysis; type: ADME, organism-based; settings: in vivo, 1 h
Nucleic Acid [4] = assay: Ratio of drug uptake in tumor to muscle in Mus musculus KM (mouse) at 3.7 MBq, iv at 60 min; type: ADME, organism-based; settings: in vivo, 1 h
Spleen [5] = assay: Biodistribution in tumor bearing Mus musculus KM (mouse) spleen at 3.7 MBq, iv by microPET imaging analysis; type: ADME, organism-based; settings: in vivo, TDE = time-dependent effect
Nucleic Acid [6] = assay: Ratio of drug uptake in tumor to muscle in Mus musculus KM (mouse) at 3.7 MBq, iv at 120 min; type: ADME, organism-based; settings: in vivo, 2 h
Brain [7] = assay: Biodistribution in tumor bearing Mus musculus KM (mouse) brain at 3.7 MBq, iv measured at 60 min by microPET imaging analysis; type: ADME, organism-based; settings: in vivo, 1 h
Spleen [8] = assay: Biodistribution in tumor bearing Mus musculus KM (mouse) spleen at 3.7 MBq, iv measured at 120 min by microPET imaging analysis; type: ADME, organism-based; settings: in vivo, 2 h
Blood [9] = assay: Biodistribution in tumor bearing Mus musculus KM (mouse) blood at 3.7 MBq, iv measured at 120 min by microPET imaging analysis; type: ADME, organism-based; settings: in vivo, 2 h
Kidney [10] = assay: Biodistribution in tumor bearing Mus musculus KM (mouse) kidney at 3.7 MBq, iv measured at 5 min by microPET imaging analysis; type: ADME, organism-based; settings: in vivo
Lung [11] = assay: Biodistribution in tumor bearing Mus musculus KM (mouse) lung at 3.7 MBq, iv measured at 60 min by microPET imaging analysis; type: ADME, organism-based; settings: in vivo, 1 h
Kidney [12] = assay: Clearance in tumor-bearing Mus musculus KM (mouse) kidney at 3.7 MBq, iv measured at 60 min; type: ADME, organism-based; settings: in vivo, 1 h
Liver [13] = assay: Biodistribution in tumor bearing Mus musculus KM (mouse) liver at 3.7 MBq, iv measured at 120 min by microPET imaging analysis; type: ADME, organism-based; settings: in vivo, 2 h
Liver [14] = assay: Biodistribution in tumor bearing Mus musculus KM (mouse) liver at 3.7 MBq, iv measured at 5 min by microPET imaging analysis; type: ADME, organism-based; settings: in vivo
Nucleic Acid [15] = assay: Ratio of drug uptake in tumor to muscle in Mus musculus KM (mouse) at 3.7 MBq, iv at 5 min; type: ADME, organism-based; settings: in vivo
Tumour [16] = assay: Biodistribution in tumor of Mus musculus KM (mouse) at 3.7 MBq, iv measured at 30 min by microPET imaging analysis; type: ADME, organism-based, Neoplasm; settings: in vivo, 0.5 h
Heart [17] = assay: Biodistribution in tumor bearing Mus musculus KM (mouse) heart at 3.7 MBq, iv measured at 120 min by microPET imaging analysis; type: ADME, organism-based; settings: in vivo, 2 h
Nucleic Acid [18] = assay: Ratio of drug uptake in tumor to muscle in Mus musculus KM (mouse) at 3.7 MBq, iv at 30 min; type: ADME, organism-based; settings: in vivo, 0.5 h
Kidney [19] = assay: Biodistribution in tumor bearing Mus musculus KM (mouse) kidney at 3.7 MBq, iv measured at 30 min by microPET imaging analysis; type: ADME, organism-based; settings: in vivo, 0.5 h
Brain [20] = assay: Biodistribution in tumor bearing Mus musculus KM (mouse) brain at 3.7 MBq, iv measured at 15 min by microPET imaging analysis; type: ADME, organism-based; settings: in vivo, 0.25 h
Muscle tissue [21] = assay: Biodistribution in tumor bearing Mus musculus KM (mouse) muscle at 3.7 MBq, iv measured at 120 min by microPET imaging analysis; type: ADME, organism-based; settings: in vivo, 2 h
[22] = Octanol-PBS partition coefficient of the compound at pH 7.4 by gamma counter; type: physicochemical; settings: read-out: log KOW
Blood [23] = assay: Biodistribution in tumor bearing Mus musculus KM (mouse) blood at 3.7 MBq, iv measured at 5 min by microPET imaging analysis; type: ADME, organism-based; settings: in vivo
Liver [24] = assay: Biodistribution in tumor bearing Mus musculus KM (mouse) liver at 3.7 MBq, iv by microPET imaging analysis; type: ADME, organism-based; settings: in vivo, TDE = time-dependent effect
Muscle tissue [25] = assay: Biodistribution in tumor bearing Mus musculus KM (mouse) muscle at 3.7 MBq, iv measured at 30 min by microPET imaging analysis; type: ADME, organism-based; settings: in vivo, 0.5 h
Heart [26] = assay: Biodistribution in tumor bearing Mus musculus KM (mouse) heart at 3.7 MBq, iv measured at 30 min by microPET imaging analysis; type: ADME, organism-based; settings: in vivo, 0.5 h
Tumour [27] = assay: Biodistribution in tumor of Mus musculus KM (mouse) at 3.7 MBq, iv measured at 5 min by microPET imaging analysis; type: ADME, organism-based, Neoplasm; settings: in vivo
Muscle tissue [28] = assay: Biodistribution in tumor bearing Mus musculus KM (mouse) muscle at 3.7 MBq, iv by microPET imaging analysis; type: ADME, organism-based; settings: in vivo, TDE = time-dependent effect
[29] = Chemical stability in acetonitrile at 60 degC up to 30 min by HPLC analysis; type: physicochemical; settings: 0.5 h
Tumour [30] = assay: Biodistribution in tumor of Mus musculus KM (mouse) at 3.7 MBq, iv measured at 15 min by microPET imaging analysis; type: ADME, organism-based, Neoplasm; settings: in vivo, 0.25 h
Lung [31] = assay: Biodistribution in tumor bearing Mus musculus KM (mouse) lung at 3.7 MBq, iv by microPET imaging analysis; type: ADME, organism-based; settings: in vivo, TDE = time-dependent effect
Spleen [32] = assay: Biodistribution in tumor bearing Mus musculus KM (mouse) spleen at 3.7 MBq, iv measured at 15 min by microPET imaging analysis; type: ADME, organism-based; settings: in vivo, 0.25 h
Lung [33] = assay: Biodistribution in tumor bearing Mus musculus KM (mouse) lung at 3.7 MBq, iv measured at 120 min by microPET imaging analysis; type: ADME, organism-based; settings: in vivo, 2 h
Blood [34] = assay: Biodistribution in tumor bearing Mus musculus KM (mouse) blood at 3.7 MBq, iv measured at 30 min by microPET imaging analysis; type: ADME, organism-based; settings: in vivo, 0.5 h
Liver [35] = assay: Biodistribution in tumor bearing Mus musculus KM (mouse) liver at 3.7 MBq, iv measured at 15 min by microPET imaging analysis; type: ADME, organism-based; settings: in vivo, 0.25 h
Tumour [36] = assay: Biodistribution in tumor of Mus musculus KM (mouse) at 3.7 MBq, iv measured at 60 min by microPET imaging analysis; type: ADME, organism-based, Neoplasm; settings: in vivo, 1 h
Muscle tissue [37] = assay: Biodistribution in tumor bearing Mus musculus KM (mouse) muscle at 3.7 MBq, iv measured at 15 min by microPET imaging analysis; type: ADME, organism-based; settings: in vivo, 0.25 h
Liver [38] = assay: Biodistribution in tumor bearing Mus musculus KM (mouse) liver at 3.7 MBq, iv measured at 30 min by microPET imaging analysis; type: ADME, organism-based; settings: in vivo, 0.5 h
Lung [39] = assay: Biodistribution in tumor bearing Mus musculus KM (mouse) lung at 3.7 MBq, iv measured at 30 min by microPET imaging analysis; type: ADME, organism-based; settings: in vivo, 0.5 h
Blood [40] = assay: Biodistribution in tumor bearing Mus musculus KM (mouse) blood at 3.7 MBq, iv by microPET imaging analysis; type: ADME, organism-based; settings: in vivo, TDE = time-dependent effect
Tumour [41] = assay: Biodistribution in tumor of Mus musculus KM (mouse) at 3.7 MBq, iv by microPET imaging analysis; type: ADME, organism-based, Neoplasm; settings: in vivo, TDE = time-dependent effect
Liver [42] = assay: Clearance in tumor-bearing Mus musculus KM (mouse) liver at 3.7 MBq, iv measured at 60 min; type: ADME, organism-based; settings: in vivo, 1 h
Liver [43] = assay: Biodistribution in tumor bearing Mus musculus KM (mouse) liver at 3.7 MBq, iv measured at 60 min by microPET imaging analysis; type: ADME, organism-based; settings: in vivo, 1 h

## COC(=O)CNC(=O)c1ccc(OCC[18F])cc1 [[18F]FEBA]
Tumour [1]
  Drug uptake: 1.21 % ID/g
Blood [2]
  CL: 96%
Blood [3]
  Drug uptake: 0.98 % ID/g
Nucleic Acid [4]
  Ratio: 2.8
Spleen [5]
  Drug uptake: tde
Nucleic Acid [6]
  Ratio: 1.03
Brain [7]
  Drug uptake: 0.55 % ID/g
Spleen [8]
  Drug uptake: 0.6 % ID/g
Blood [9]
  Drug uptake: 0.85 % ID/g
Kidney [10]
  Drug uptake: 7.25 % ID/g
Lung [11]
  Drug uptake: 0.87 % ID/g
Kidney [12]
  CL: 97%
Liver [13]
  Drug uptake: 0.68 % ID/g
Liver [14]
  Drug uptake: 4.19 % ID/g
Nucleic Acid [15]
  Ratio: 1.05
Tumour [16]
  Drug uptake: 1.71 % ID/g
Heart [17]
  Drug uptake: 0.77 % ID/g
Nucleic Acid [18]
  Ratio: 1.82
Kidney [19]
  Drug uptake: 1.77 % ID/g
Brain [20]
  Drug uptake: 1.26 % ID/g
Muscle tissue [21]
  Drug uptake: 1.17 % ID/g
[22]
  logD: 0.57
Blood [23]
  Drug uptake: 4.68 % ID/g
Liver [24]
  Drug uptake: tde
Muscle tissue [25]
  Drug uptake: 0.94 % ID/g
Heart [26]
  Drug uptake: 0.95 % ID/g
Tumour [27]
  Drug uptake: 2.12 % ID/g
Muscle tissue [28]
  Drug uptake: tde
[29]
  Stability: Stable
Tumour [30]
  Drug uptake: 2.3 % ID/g
Lung [31]
  Drug uptake: tde
Spleen [32]
  Drug uptake: 1.19 % ID/g
Lung [33]
  Drug uptake: 0.76 % ID/g
Blood [34]
  Drug uptake: 1.28 % ID/g
Liver [35]
  Drug uptake: 2.11 % ID/g
Tumour [36]
  Drug uptake: 1.48 % ID/g
Muscle tissue [37]
  Drug uptake: 1.25 % ID/g
Liver [38]
  Drug uptake: 1.08 % ID/g
Lung [39]
  Drug uptake: 1.32 % ID/g
Blood [40]
  Drug uptake: tde
Tumour [41]
  Drug uptake: tde
Liver [42]
  CLH: 91%
Liver [43]
  Drug uptake: 0.73 % ID/g
